Experimental data from patent publication US10160812B2, “Bispecific HER2 antibodies” (MedImmune, LLC, priority 2014, dated 2018).
Blank lines part the entries; values can stand above or below the molecule they belong to.

Assays:
JIMT-1 = assay: In vitro cytotoxic activity (Cell Titer Glo); assay type: cell-based, human; conditions: JIMT-1, 3 to 4 days
Experimental: A panel of human cancer cell lines expressing various levels of HER2 was used to evaluate the cytotoxic activity of bispecific ADC (Table 5 in Example 1). Briefly, cells were harvested, resuspended, and plated in serum-containing culture media at a density of 5,000 to 20,000 per well (depending on the growth kinetics of each cell line) of 96-well plates in a volume of 100 μL. A 2× concentration of each dose of antibody or ADC to be tested was prepared by diluting the test articles in culture medium. One hundred microliters of each test article was added to cells in triplicate such that the final dose curve ranged from 5 nM down to 0.08 pM in a stepwise 1:4 serial dilution series. The treated cells were incubated at 37° C./5% CO2 for 3 to 4 days, depending on the growth kinetics of each particular cell line. Cell viability was determined using Cell Titer Glo according to manufacturer's instructions. Data are analyzed by the GraphPad Prism software and presented as percent growth inhibition relative to the untreated control. EC50 values were determined using Sigmoidal non-linear regression analysis with GraphPad Prism software and were summarized in Table 6.

MCF-7 = assay: In vitro cytotoxic activity (Cell Titer Glo); assay type: cell-based, human; conditions: MCF-7, 3 to 4 days
Experimental: (§1) Briefly, cells were harvested, resuspended, and plated in serum-containing culture media at a density of 5,000 to 20,000 per well (depending on the growth kinetics of each cell line) of 96-well plates in a volume of 100 μL. A 2× concentration of each dose of antibody or ADC to be tested was prepared by diluting the test articles in culture medium. One hundred microliters of each test article was added to cells in triplicate such that the final dose curve ranged from 5 nM down to 0.08 pM in a stepwise 1:4 serial dilution series. The treated cells were incubated at 37° C./5% CO2 for 3 to 4 days, depending on the growth kinetics of each particular cell line. Cell viability was determined using Cell Titer Glo according to manufacturer's instructions. Data are analyzed by the GraphPad Prism software and presented as percent growth inhibition relative to the untreated control.

MCF7-GTU = assay: In vitro cytotoxic activity (Cell Titer Glo); assay type: cell-based, human; conditions: 3 to 4 days
Experimental: as §1

[1] = target: T1, chimeric human/mouse Her2 variants (Mus musculus, UniProt P70424, A197S/A354V/A504E/D184L/D202G/D360A/D439N/E308D/E418D/E503D/E575V/E586V/E640D/F420L/G218R/G341R/G353E/G389N/G498A/G506V/G558A/H204R/H397Q/H452S/I215S/I220V/I273V/I357V/I623A/K394Q/K549Q/K559R/L174F/L284P/L507G/M185I/N203S/N319H/N385D/N479H/N513H/P182L/P194H/P210S/P318L/Q421P/R175H/R231P/R430Q/R471H/R557N/R641K/S223G/S387A/S453W/S497T/S514Q/S573G/S580P/S594P/S595P/S596F/T199M/T222A/T299A/V173I/V183T/V390T/V511A/W548L/Y578F/Y617F); assay: ProteOn SPR binding of 39S to captured chimeric Her2 variants; conditions: variant KO_I, swapped human HER2 amino acids 1-145; apparent affinity, variant captured on chip
T1 construct: His tag; made in house; host or cells: HEK293F (transient, pEBNA vector; captured from culture supernatant)
Text: The domain II of human HER2 was identified as the epitope of 39S by swapping domains between human and mouse Her2 molecules. Mouse Her2 was chosen as the chimeric partner because it is not recognized by 39S, but shares 85% sequence identity with human HER2. Chimeric variants targeting each domain of HER2 were constructed (see method below) as listed in Table 4, including four knock-out (KO, loss-of-function) variants replacing domain I, II, III, or IV of human HER2 with the mouse counterpart, and one knock-in (KI, gain-of-function) variant grafting the domain II of human HER2 into mouse Her2 molecule. The chimeric variant nomenclature denotes types of variants (KO/KI) and the number of domains swapped. The binding profiles of 39S to these variants were characterized using a SPR based instrument ProteOn™ by capturing variants on sensor surfaces using anti-human and mouse Her2 polyclonal antibodies (see method below). The expression of the variants was monitored by anti-His polyclonal antibody using ProteOn™. […] Therefore, the domain II (amino acid 146-310) of human HER2 was identified as the epitope-containing domain of 39S by both loss-of-function and gain-of-function variants.
We further refined the epitope of 39S and identified the region of amino acid 192-208 in domain II as the critical epitope region. […] Seven knock-out variants were generated by replacing each of the following human HER2 regions with the mouse counterparts, including amino acids 146-208, 159-162, 171-187, 192-208, 250-261, 276-285, and 295-296. In addition, one knock-in variant was constructed by grafting the region of amino acid 192-208 of human HER2 to the mouse molecule. The variant nomenclature denotes types of variants (KO/KI) and the swapped regions with amino acid numbering. All variants had detectable expression levels by anti-His polyclonal antibody (Table 4). […] The binding of 39S was not impacted when substituting any other regions of human HER2 with mouse amino acids (KO_159-162, KO_171-187, KO_250-261, KO_276-285, and KO_295-296). […] Taken together, the region of amino acid 192-208 in domain II of human HER2 was identified as the functional epitope of 39S.
The variant nomenclature denotes types of variants (KO/KI) and the swapped regions with amino acid numbering. Amino acid positions were denoted basing on the numbering scheme of mature human HER2 sequences without its signal peptide. The expression levels of all variants were monitored by an anti-His polyclonal antibody. The binding profiles of 39S to these variants were characterized using a SPR based instrument ProteOn™ by capturing variants on sensor surfaces using anti-human and mouse Her2 polyclonal antibodies.
Construction and expression of chimeric human/mouse Her2 variants were constructed as follows. Briefly, DNAs encoding chimeric human/mouse Her2 variants with a His tag were assembled and amplified by overlapping PCR using human and mouse Her2 plasmids as templates (MedImmune). The assembled DNAs were cloned into the mammalian expression vector pEBNA (MedImmune). HEK293F cells were then transiently transfected with the various constructs using 293fectin and standard protocols according to the manufacturer's instructions (Invitrogen).
The binding characteristics of 39S to chimeric human/mouse variants were studied using a ProteOn™ XPR36 instrument (BioRad). Standard amine coupling was used to immobilize an anti-human or mouse Her2 polyclonal antibody (R&D System) in 10 mM sodium acetate (pH 5.0) to the surface of a GLC biosensor chip at ˜5000 resonance units (RU) for each channel. The chimeric proteins in cell culture supernatant were injected and captured by anti-human or mouse polyclonal antibodies onto the GLC surface with a ˜200RU response. Anti-HER2 mAb 39S was diluted in phosphate-buffered saline (PBS) (pH 7.4) with 0.005% Tween-20 from 10 nM to 0.625 nM (1:2 dilution), and injected at 100 μL/min for 180 sec with a 600-second dissociation time. […]

[2] = target: T2, HER2:HER3 heterodimerization (Homo sapiens, UniProt P04626); assay: Disruption of HER2:HER3 heterodimerization (IP/Western, T47D cells); assay type: cell-based; conditions: 500 nM antibody, heregulin-b1 8 ng/mL
T2 construct: endogenous in cells; host or cells: T47D
Experimental: Cells were seeded at a density of 1×10^6 cells/well in a 6-well plate and then incubated overnight at 37° C./5% CO2. […] After pre-treatment, heregulin-β1 was added at a final concentration of 8 ng/mL and cells were incubated for 5 min at 37° C./5% CO2. Cells were then washed twice with ice-cold 1×PBS, lysed and immune-precipitated using mouse anti-human HER2 (clone 44E7) antibody and the Pierce Classic IP Kit from Thermo Scientific according to manufacturer's instructions. Immune-precipitated protein samples were eluted in Laemmli buffer containing 2-mecaptoethanol and analyzed by Western blot using standard protocol. Rabbit anti-human HER2 (clone 29D8) antibody was used to detect HER2 and rabbit anti-human HER3 (C-17) polyclonal antibody was used to detect HER3 in the Western blot analysis.

Molecule: T-DM1 [reference compound]
In vitro potency (EC50 in pM) (JIMT-1): Inactive | In vitro potency (EC50 in pM) (MCF-7): Inactive | In vitro potency (EC50 in pM) (MCF7-GTU): Inactive

Kd [1]: 0.095 nM | The binding affinity of 39S (KD) [1]: retained binding
B1: 39S: lead optimized monoclonal antibody derived from the 1.39.1 antibody; VH SEQ ID NO:15, VL SEQ ID NO:16 (antibody, V domains shown)
VH: EVQLVESGGGLVKPGGSLRLSCAASGFTFSSYSMSWVRQAPGKGLEWVSSISSSSSYIYYADSVKGRFTISRDNAKNSLYLQMNSLRAEDTAVYYCARGGDAYNYYYFDYWGQGTLVTVSS
VL: DIVMTQTPLSLSVTPGQPASISCKSSQSVFFRSNNKNILAWYLQKPGQPPQLLIYWASSRESGVPDRFSGSGSGTDFTLKISRVEAEDVGVYYCQQYFGSPFTFGPGTKVDIK
disruption of HER2:HER3 heterodimerization induced by ligand stimulation [2]: can disrupt
